According to patent US20230081529A1 (CBSBIOSCIENCE CO., LTD, priority 2020, published 2023):
Read-outs that look alike come from different tables or passages of the source.

Assays:
[1] = test system: hepatocellular carcinoma (HCC) patients; details: systemic first-line therapy without predictive biomarkers; cited from earlier work
[2] = test system: hepatocellular carcinoma (HCC) patients; test: Sorafenib treatment of 73 HCC patients: tumor response (mRECIST) and Kaplan-Meier survival; assay type: in vivo, human
Excerpt: This study included 73 histological confirmed HCC patients. […] All tissues were obtained by needle biopsy. The patients were from Ajou Medical Center (AMC). The protocol of this study was approved by the Institutional Review Boards of Ajou Medical Center (AMC).
From a DCR perspective, patients with complete response (CR), partial response (PR) and stable disease (SD) were considered as responders whereas those with progressive disease (PD) were judged as non-responders.
Relationship between treatment response and clinicopathologic variables was evaluated using Chi square tests or Fishers exact tests. Gene expression data were tested for normality with the Shapiro-Wilk test. […] Receiver operating characteristic (ROC) curve analysis was used to determine accuracy of threshold values classifying tumor responders and non-responders using gene signature. Kaplan-Meier survival (KM) curves were calculated using death as end point in overall survival (OS) and using death and progression disease as end point in progression free survival (PFS). The difference in KM curves was examined by log-rank test and the difference in hazard ratio was examined by Cox regression analysis. […] Significance was set at P<0.05 (two-tailed). All statistics were performed in R version 3.3.3 (R Development Core Team, https:/www.r-project.org/).

[3] = entire patients treated with sorafenib
[4] = predicted good responders (8-gene signature)
[5] = predicted poor responders (8-gene signature)

With `CNC(=O)c1cc(Oc2ccc(NC(=O)Nc3ccc(Cl)c(C(F)(F)F)c3)cc2)ccn1` [sorafenib] as the molecule, how does the Median overall survival [1] read?
Its Median overall survival is 10.7 months.

What about the objective response rates [1] of the same molecule?
Its objective response rates is 2%.

And the Median overall survival [2, 3]?
Its Median overall survival is 11.3 months.

And the Median progression-free survival [2, 3]?
Its Median progression-free survival is 2.9 months.

And the “Median time to progression” value [2, 3]?
The value was 2.9 months.

And the disease control rate ([2]; entire patients, before selection with the 8-gene signature)?
Its disease control rate is 28.77%.

What about the “Tumor response: Progressive disease, number of patients” value ([2]; non-responders (n = 52)) of the same molecule?
The value was 52.

What about the “Tumor response: Progressive disease, share of group” value ([2]; non-responders (n = 52)) of the same molecule?
The value was 100.0%.

And the “number of non-responders (PD)” value ([2]; of 73 patients treated with sorafenib)?
Its value is 52.

What about the disease control rate ([2]; patients selected with the 8-gene signature) of the same molecule?
The disease control rate was 85.71%.

What about the Median progression-free survival [2, 4] of the same molecule?
Its Median progression-free survival is 5.8 months.

And the “Median time to progression” value [2, 4]?
The value was 5.8 months.

What about the Median overall survival [2, 5] of the same molecule?
Its Median overall survival is 6.7 months.

And the Median progression-free survival [2, 5]?
Its Median progression-free survival is 2.8 months.

And the “Median time to progression” value [2, 5]?
The value was 2.8 months.

And the “Tumor response: Complete response, number of patients” value ([2]; responders (n = 21))?
Its value is 2.

And the “Tumor response: Complete response, share of group” value ([2]; responders (n = 21))?
The value was 9.5%.

And the “Tumor response: Partial response, number of patients” value ([2]; responders (n = 21))?
Its value is 9.

And the “Tumor response: Partial response, share of group” value ([2]; responders (n = 21))?
Its value is 42.9%.

And the “Tumor response: Stable disease, number of patients” value ([2]; responders (n = 21))?
The value was 10.

And the “Tumor response: Stable disease, share of group” value ([2]; responders (n = 21))?
Its value is 47.6%.
